Test results reported in patent publication US20060088897A1, “Modulators” (priority 2003, published 2006).

Assays:
Assay type in all cases: cell-based
[1] = tested on: N1E-115 cells; test: Microinjection of peptides into partially serum starved N1E-115 cells, phalloidin staining and confocal microscopy of cell morphology; settings: FIG. 8A
Procedure: (§1) Cells are starved for 2-3 h and then either injected with peptides (10 μg/ml) or exposed to peptides with bioporter reagent. Cells are incubated for a further 2 h before being stained with phalloiden and examined by confocal microscopy (as described in the materials and methods section). (A) The upper cells is injected with αP1 (a), or all cells injected with αP1*(b), or exposed to αP2 with bioporter reagent (c). […] Results are expressed as means+/−SEM of 3 experiments (n=333-426 cells). […] (D) Cells are exposed to bioporter reagent with αP2 and after 6 h double stained with αPAK and vinculin antibodies; (a) Vinculin/αPAK, (b) Vinculin and (c) αPAK. Bar=10 μM. Control bars are with IgG with bioporter/microinjection.
(§2) Cells are starved for 2-3 h and then injected with peptides. Cells are then incubated for 2 h before being stained with phalloiden and examined by confocal microscopy (as described in the materials and methods section). (A) Cells are injected with IgG (a), with αP2 (b), with βP2 (c) and γP2 (d). Bar=10 μM. (B) Cells are exposed to bioporter with peptides and presence of neurites, pronounced filopodia and pronounced lamellipodia/ruffles scored (definitions as in FIG. 7). (C) Cells are either exposed to bioporter reagent coated peptides (αP2 and βP2) and then IGF or serum starvation used to activate cells. For γP2 cells are injected with peptide and stimulated with serum. Filopodia and lamellipodia are scored by using time-lapse phase contrast microscopy. +/−SEM of 3 experiments (n=900). Control peptide is taken from the kinase domain and common to the three PAK isoforms.
Cells are plated out at 1.0×10^5 cells in 1 ml in a 35 mm dish containing 2 laminin coated coverslips. The coverslips are first marked with a grid using a fine permanent marker and then coated with laminin and incubated overnight in DMEM, 10% FCS, 1% AB/AM. The media is replaced with serum free media (DMEM, 1% AB/AM) and the cells starved for 1 hour so that they flattened and are easier to inject. The peptides are injected at 10 μg/ml in PBS, Rat IgG at 1 mg/ml is added to act as a marker for injected cells.
The cells are injected using an Eppendorf microinjection apparatus on an Axioplan inverted microscope equipped with a heated stage maintained at 37° C. and a 5% CO2 chamber. Humidity is maintained by a dish of sterile water inside the CO2 chamber. Cells in a grid square are injected and positive injection checked visually at the time of injection or after fixation and staining for the injected marker. After injection the cells are returned to the incubator for a further 2 hours. Giving a total time without serum of 4 hours.
The only difference between these two peptides being that the latter peptide is phosphorylated on serine and this modification prevents it from binding Nck (Zhao et al., 1998). To investigate the effects of peptides we first serum starve the cells for 2-4 h to activate Cdc42Hs and Rac.

[2] = tested on: N1E-115 cells; test: Peptide delivery with BioPorter reagent, scoring of neurites, filopodia and lamellipodia/ruffles
Procedure: as §1, §2
BioPorter regent is supplied as a dried powder and must be dissolved in a solvent before use. To each tube of BioPorter reagent 250 μl of methanol is added and the powder is re-suspended by vortexing for 10-20 seconds. 10 μl of the mix is transferred into new eppendorf tubes; the methanol is allowed to evaporate for 2 hours in a laminar flow hood. The dried reagent is stored at −20° C.
Cells are plated out at 1.5×10^5 cells in a 35 mm dish containing 2 laminin-coated coverslips and incubated overnight. […]

[3] = tested on: N1E-115 cells; test: Double staining of peptide treated cells with vinculin and αPAK antibodies (focal complexes); settings: FIG. 7D
Procedure: as §1
For in situ analysis primary/secondary antibodies are used at 1:100 dilution. PAK antibodies, all from Santa-Cruz, are as follows; αPAK N-20 (raised to rat amino acids 2-21), αPAK C-19 (raised to rat amino acids 525-544), βPAK (raised to mouse amino acids 2-20), γPAK (raised to human amino acids 2-20) and γPAK (raised to human amino acids 2-20). Vinculin, paxillin, phosphotyrosine are from Sigma. Integrin antibodies β1-integrin and α6-integrin a gift from A. Sonneberg, NCI, Netherlands. Bac1 cells are seeded onto coverslips and then grown for 24 h before the media is replaced with either CSF free, serum free, or CSF/serum free. […]

[4] = tested on: N1E-115 cells; test: Cell guidance assay at Laminin/CSPG boundary (axonal guidance)
Procedure: Effect of PAK peptides on neurite morphology. Cells are exposed to control peptide, αP 1*, αP2, βP2, or γP2 and neurite morphology assessed. (B) Cells are plated on coverslips that been treated to create a Laminin/CSGP boundary. After 6 h cells are examined for their ability to project neurites that crossed the substrate boundary. Cells exposed to bioporter coated peptides, (a) αP2, (b) βP2, and (c) γP2. […] Results are means+/−SEM (n=161-263). (C) Cells are exposed to peptides and after 6 h are scored for their ability to cross boundary from Laminin to CSPG.
The coverslips are washed and sterilised and then coated in one of the following ways.
A second layer of laminin is applied as a drop mixed with 1 μg/ml TRITC label. Coverslips are left for 1 hour at RT and then rinsed twice with sterile water before allowing to dry before use. (iii) Attractive/repulsive boundary. Slides are coated with CSPG 5 μg/ml for 1 hour at 37° C. in a humid chamber then rinsed once in sterile H2O and allowed to air dry before the drop of laminin at 10 μg/ml is applied to the centre of the coverslip and left for 1 hour at RT before rinsing twice in sterile water and allowing to dry before use. This coating is also done in reverse with the laminin applied first and then the tenascin or the CSPG applied second.
The cells are then seeded onto the prepared coverslips at 2×10^5 cells in 1 ml in a 35 mm petri dish, in DMEM, 10% FCS, and 1% AB/AM. Cells are allowed to attach overnight. The media is then removed and the coverslips rinsed in serum free media and incubated overnight (18 h) in serum free media. After the starvation the cells are fixed and stained to show the morphology of the cells at the boundary. Only neurites expressing neurofilamant are scored.
After 5 minutes, the cells are washed once with serum free DMEM media and then 1 ml of serum free DMEM is added to the tube containing the peptide and BioPorter mix it is vortexed gently before being added to the cells. The cells are incubated for 4 hours at 37° C. After the 4 hour incubation the cells are then incubated for a further 2 hours in 5% FCS DMEM or for cells undergoing a substrate guidance assay the 2 hour incubation is in serum free DMEM. The cells are fixed and stained.
Neurofilament positive neurites are scored for how they respond to Laminin/CSPG boundary. […] However, neurites do have distinct morphologies (FIG. 9A). Thus α, β and γ PAK are not essential for neurite outgrowth.

[5] = tested on: N1E-115 cells; test: Axonal guidance towards IGF (preliminary experiments); settings: unpublished data
Description: In preliminary experiments we have also examined the effect of the PAK peptides on axonal guidance towards IGF in N1E-115 cells.

SNNGLDIQDKPPAPPMRNTS [αP2]
effect on formation of lamellipodia, filopodia or neurites concluded from microinjection [1]: synergise with both Cdc42 and Rac to produce neurites
neurite phenotype compared with αP1 ([2]; FIG. 7B): neurites that are thinner and longer
percentage of cells possessing neurites compared with αP1 ([2]; FIG. 7B): higher
optimal peptide concentration for the phenotypic changes ([2]; dosage dependent effect, FIG. 7C): 10 µg/mL
αPAK containing focal complexes (FC's) after peptide treatment [3]: leads to loss of FC's
ability to detect the Laminin/CSPG boundary ([4]; FIG. 9C): not affected
neurite morphology ([4]; serum starved cells, FIG. 9A): indistinguishable from control cells
effect on axonal guidance towards IGF [5]: do not affect guidance
